As usually defined, the melting point is the temperature, or range, at which the solid turns liquid. The compound `C[C@@H]1CCN(C(=O)CC#N)C[C@@H]1N(C)c1ncnc2ccoc12` [Example 2, 3-((3R,4R)-3-(furo[3,2-d]pyrimidin-4-yl(methyl)amino)-4-methylpiperidin-1-yl)-3-oxopropanenitrile] had a melting point of 107.7 °C.

In the case of `C[C@@H]1CCN(C(=O)CC#N)C[C@@H]1N(C)c1ncnn2ccnc12` [Example 4, 3-((3R,4R)-3-(Imidazo[1,2-f][1,2,4]triazin-4-yl(methyl)amino)-4-methylpiperidin-1-yl)-3-oxopropanenitrile], the melting point turned out to be 72 °C.

With `Cc1cc(N(C)[C@H]2CN(C(=O)CC#N)CC[C@H]2C)n2ncnc2n1` [Example 8, 3-((3R,4R)-4-Methyl-3-(methyl(5-methyl-1,2,41-triazolo[1,5-a]pyrimidin-7-yl)amino)piperidin-1-yl)-3-oxopropanenitrile], the melting point came out at 119.3 °C.

In turn, `C[C@@H]1CCN(C(=O)CC#N)C[C@@H]1N(C)c1ncnc2sccc12` [Example 9, 3-((3R,4R)-4-methyl-3-(methyl(thieno[2,3-d]pyrimidin-4-yl)amino)piperidin-1-yl)-3-oxopropanenitrile] had a melting point of 74.3 °C.

In turn, `C[C@@H]1CCN(c2ncnn3cccc23)C[C@@H]1N(C)c1ncnn2cccc12` [Example 17, N-Methyl-N-((3R,4R)-4-methyl-1-(pyrrolo[1,2-f][1,2,4]triazin-4-yl)piperidin-3-yl)pyrrolo[1,2-f][1,2,4]triazin-4-amine] returned a melting point of 103.4 °C.

For the compound `C[C@@H]1CCNC[C@@H]1N(C)c1nccc2[nH]ccc12` [Example 18, N-Methyl-N-((3R,4R)-4-methylpiperidin-3-yl)-1H-pyrrolo[3,2-c]pyridin-4-amine], the melting point worked out at 126.9 °C.

The values above are taken from patent US20110165183A1, “PIPERIDINE DERIVATIVES AS JAK3 INHIBITORS” (BioCryst Pharmaceuticals, Inc., priority 2008, published 2011).
